These are literature values, as cited in patent US6503745B1, “Cyclopentane and cyclopentene compounds and use for detecting influenza virus” (priority 1998, dated 2003).

Where two headings read alike, the source gives them in different places.

The subject of data set [1] is influenza. The settings on record: in human volunteers.
For data set [2], the system named is influenza. The settings on record: in animals.

Take `CCC(CC)O[C@@H]1C=C(C(=O)O)C[C@H](N)[C@H]1NC(C)=O` [GS 4071, (3R,4R,5S)-4-acetamido-5-amino-3-(1-ethylpropoxy)-1-cyclohexene-1-carboxylic acid]: the “binder of influenza neuraminidase” value in the data set with influenza neuraminidase is listed as “potent binders”.

For the compound `CC(=O)NC1C(NC(=N)N)C=C(C(=O)O)OC1[C@H](O)[C@H](O)CO` (stereo partly shown) [GG167, 2,3-didehydro-2,4-dideoxy-4-guanidinyl-N-acetylneuraminic acid], the “in vivo antiviral activity” value in the data set with influenza [1] and with influenza [2] was “potent in vivo antiviral activity” throughout. In addition, the “binder of influenza neuraminidase” value in the data set on influenza neuraminidase is “potent binder”.
